Assay results taken from patent US6861432B2, “Piperazine derivatives that destabilize androgen receptors” (Schering Aktiengesellschaft, priority 2001, dated 2005).
Where two headings read alike, the source gives them in different places.

Tests used:
seminal vesicles = test: Model 4: Antiandrogenic action on testosterone-stimulated growth of accessory sexual glands of castrated mice; assay type: in vivo; conditions: testosterone propionate 0.03 mg/mouse, test substance 2 × 30 mg/kg s.c., 7 days, CPA 30 mg/kg s.c., bicalutamide from preceding tests
Experimental: The function and the size of accessory sexual glands (prostate and seminal vesicles) depend on androgens. In castrated animals, a growth of these (organs is induced by androgen administration. The simultaneous treatment with antiandrogens inhibits this growth, depending on the dose.
To examine the test substances, the mice were castrated. The treatment with testosterone propionate (0.03 mg/mouse) and the test substances (formulated 2×daily 30 mg/kg s.c. in benzyl benzoate-castor oil (10:90)) was on the same day. The treatment was carried out over 7 days and at the end of the test, the weights of the seminal vesicles and prostates were determined. The inhibition, in percent, of the seminal vesicle growth was calculated relative to the control groups (with and without testosterone). As a reference substance, cyproterone acetate (30 mg/kg s.c.) was used.

MaTu/Adr cells = test: Model 3: Proliferation of non-prostate cells, MaTu/Adr; assay type: cell-based, human; conditions: 10 μM, 3-day treatment; percent of cell growth of solvent control
Experimental: (§1) To examine the growth-inhibiting action of test substances in cells that are not of prostatic origin, MaTu cells, MaTu/Adr cells, HaCaT cells and A431 cells were treated with test substances, whereby
(§2) Depending on the cell line, 1000-4000 cells/well were grown in RPMI 1640 medium (A431; MaTu and MaTu/Adr) or DMEM/HAM'SF12 medium (HaCaT) without phenol red with 2 mmol of L-glutamine and 10% CCS, and after a 24-hour incubation, they were treated with various concentrations of test substances diluted in culture medium. After a 3-day treatment period, the number of cells was determined by crystal violet assay, as in Model 2. The solvent control contained 0.1% ethanol.
(§3) The substances were tested at a concentration of 10 μM, and the data correspond to the proportion, in percent, of the cell growth of the solvent control. It turns out that the test substances exerted no inhibitory action on the four different cell lines or, in individual cases, only a slight inhibitory action.

MaTu cells = test: Model 3: Proliferation of non-prostate cells, MaTu; assay type: cell-based, human; conditions: 10 μM, 3-day treatment; percent of cell growth of solvent control
Experimental: as §1, §2, §3

A431 cells = test: Model 3: Proliferation of non-prostate cells, A431; assay type: cell-based, human; conditions: 10 μM, 3-day treatment; percent of cell growth of solvent control
Experimental: as §1, §2, §3

androgen receptor = target: T1, androgen receptor (Homo sapiens, UniProt P10275, T878A); test: cell-based; conditions: for remaining activity at 10 µM / remaining activity at 1 µM: LNCaP; for remaining activity at 10 µM: read-out: AR Content [%] At 10 μM; for remaining activity at 1 µM: read-out: AR Content [%] At 1 μM; for AR Content [%]: R-1881 at 10 nM, percentage of DMSO control
T1 construct: 2*10^6 LNCaP cells in 6 ml of RPMI 1640 without phenol red are grown; endogenous in cells; host or cells: LNCaP (human prostate cell line)
T1 sequence (P10275 1-920 T878A): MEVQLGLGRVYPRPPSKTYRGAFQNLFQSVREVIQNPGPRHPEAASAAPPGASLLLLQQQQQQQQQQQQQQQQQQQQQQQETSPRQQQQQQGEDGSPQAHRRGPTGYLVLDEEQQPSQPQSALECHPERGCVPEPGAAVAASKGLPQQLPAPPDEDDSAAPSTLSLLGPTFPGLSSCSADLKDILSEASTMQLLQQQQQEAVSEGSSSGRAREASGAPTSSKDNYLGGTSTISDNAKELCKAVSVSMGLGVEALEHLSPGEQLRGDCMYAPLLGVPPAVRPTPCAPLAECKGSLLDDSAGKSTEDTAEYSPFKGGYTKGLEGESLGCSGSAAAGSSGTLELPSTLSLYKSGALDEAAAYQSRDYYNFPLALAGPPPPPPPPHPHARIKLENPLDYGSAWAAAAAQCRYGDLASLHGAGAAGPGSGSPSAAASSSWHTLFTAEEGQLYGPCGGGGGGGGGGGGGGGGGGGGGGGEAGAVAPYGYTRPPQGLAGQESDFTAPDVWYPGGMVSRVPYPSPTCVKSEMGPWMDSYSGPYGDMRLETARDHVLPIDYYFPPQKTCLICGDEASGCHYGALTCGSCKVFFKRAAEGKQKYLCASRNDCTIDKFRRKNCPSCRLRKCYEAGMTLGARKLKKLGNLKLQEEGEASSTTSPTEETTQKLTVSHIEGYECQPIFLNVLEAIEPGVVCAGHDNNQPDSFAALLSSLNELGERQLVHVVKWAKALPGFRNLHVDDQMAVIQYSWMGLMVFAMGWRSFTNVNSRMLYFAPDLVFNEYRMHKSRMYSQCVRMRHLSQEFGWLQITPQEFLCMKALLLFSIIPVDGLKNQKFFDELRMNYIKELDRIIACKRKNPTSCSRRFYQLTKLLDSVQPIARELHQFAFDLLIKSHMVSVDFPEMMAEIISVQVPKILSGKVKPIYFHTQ

HaCaT cells = test: Model 3: Proliferation of non-prostate cells, HaCaT; assay type: cell-based, human; conditions: 10 μM, 3-day treatment; percent of cell growth of solvent control
Experimental: as §1, §2, §3

LNCaP cells = test: Model 2: Inhibition of the proliferation of LNCaP cells (crystal violet assay; antagonism with 0.1 nM R1881, agonism without); assay type: cell-based, human; conditions: for IC50: LNCaP proliferation in the presence of 0.1 nM R1881, 7-8 days, read-out: IC50 [10^−7 M]; for % Inhibition at 1 μM: LNCaP proliferation, 1 μM substance, compared to cell growth in the presence of 0.1 nM R1881

## CC(=O)O[C@]1(C(C)=O)CC[C@H]2[C@@H]3C=C(Cl)C4=CC(=O)[C@@H]5C[C@@H]5[C@]4(C)[C@H]3CC[C@@]21C [CPA, 17-(acetyloxy)-6-chloro-1β,2β-dihydro-3′H-cyclopropa[1,2]pregna-1,4,6-triene-3,20-dione, reference compound]
Seminal vesicles
  % Inhibition of the MSB Growth: 85%

## CC1=C(CCCCN2CCN(C(=O)c3ccccc3Cl)CC2)C(=O)N(c2ccc(C#N)c(C(F)(F)F)c2)C1=O [Example 90, 4-[3-[4-[4-(2-Chlorobenzoyl)piperazin-1-yl]butyl]-2,5-dihydro-4-methyl-2,5-dioxo-1H-pyrrol-1-yl]-2-(trifluoromethyl)benzonitrile]
MaTu/Adr cells
  Proliferation in the Cell Line MaTu/Adr: 80 +/− 2%
MaTu cells
  Proliferation in the Cell Line MaTu: 96 +/− 3%
A431 cells
  Proliferation in the Cell Line A431: 98 +/− 7%
Androgen receptor; 48 h
  remaining activity at 10 µM: 34%
HaCaT cells
  Proliferation in the Cell Line HaCaT: 102 +/− 12%

## COc1ccccc1C(=O)N1CCN(CCCCCCC2=C(C)C(=O)N(c3ccc(C#N)c(C(F)(F)F)c3)C2=O)CC1 [Example 248, 4-[2,5-Dihydro-3-[6-[4-(2-methoxybenzoyl)piperazin-1-yl]hexyl]-4-methyl-2,5-dioxo-1H-pyrrol-1-yl]-2-(trifluoromethyl)benzonitrile]
LNCaP cells; Homo sapiens
  IC50: 250 nM
MaTu/Adr cells
  Proliferation in the Cell Line MaTu/Adr: 88 +/− 4%
MaTu cells
  Proliferation in the Cell Line MaTu: 98 +/− 4%
A431 cells
  Proliferation in the Cell Line A431: 102 +/− 5%
Androgen receptor; 48 h
  remaining activity at 1 µM: 51%
  remaining activity at 10 µM: 22%
HaCaT cells
  Proliferation in the Cell Line HaCaT: 104 +/− 7%

## CC1=C(CCCCCCN2CCN(C(=O)Nc3ccccc3)CC2)C(=O)N(c2ccc(C#N)c(C(F)(F)F)c2)C1=O [Example 315, 4-[6-[1-[4-Cyano-3-(trifluoromethyl)phenyl]-2,5-dihydro-4-methyl-2,5-dioxo-1H-pyrrol-3-yl]hexyl]-N-phenylpiperazine-1-carboxamide]
LNCaP cells; Homo sapiens
  IC50: 380 nM
MaTu/Adr cells
  Proliferation in the Cell Line MaTu/Adr: 90 +/− 10%
MaTu cells
  Proliferation in the Cell Line MaTu: 95 +/− 7%
A431 cells
  Proliferation in the Cell Line A431: 95 +/− 5%
Androgen receptor; 48 h
  remaining activity at 10 µM: 52%
HaCaT cells
  Proliferation in the Cell Line HaCaT: 102 +/− 6%

## CC1=C(CCCCCCN2CCN(C(=O)Nc3c(F)cccc3F)CC2)C(=O)N(c2ccc(C#N)c(C(F)(F)F)c2)C1=O [Example 350, 4-[6-[1-[4-Cyano-3-(trifluoromethyl)phenyl]-2,5-dihydro-4-methyl-2,5-dioxo-1H-pyrrol-3-yl]hexyl]-N-(2,6-difluorophenyl)piperazine-1-carboxamide]
Androgen receptor; 48 h
  remaining activity at 10 µM: 61%

## CC1=C(CCCCCCN2CCN(C(=O)Nc3c(Cl)cccc3Cl)CC2)C(=O)N(c2ccc(C#N)c(C(F)(F)F)c2)C1=O [Example 351]
Androgen receptor; LNCaP cells, 10 μM test substance, 48 h, AR/actin as percentage of DMSO control
  AR Content [%] At 10 μM: 61%

## CC1=C(CCCCCCN2CCN(C(=O)Nc3cc(Cl)nc(Cl)c3)CC2)C(=O)N(c2ccc(C#N)c(C(F)(F)F)c2)C1=O [Example 365, 4-[6-[1-[4-Cyano-3-(trifluoromethyl)phenyl]-2,5-dihydro-4-methyl-2,5-dioxo-1H-pyrrol-3-yl]hexyl]-N-(2,6-dichloropyridin-4-yl)piperazine-1-carboxamide]
Androgen receptor; 48 h
  remaining activity at 1 µM: 82%
  remaining activity at 10 µM: 36%

## CC(CN1C(=S)N(c2ccc(C#N)c(C(F)(F)F)c2)C(=O)C1(C)C)N1CCN(C(=O)c2cccs2)CC1 (stereo not drawn) [Example 524, 4-[4,4-Dimethyl-5-oxo-3-[2-[4-[(thien-2-yl)carbonyl]-piperazin-1-yl]propyl]-2-thioxoimidazolidin-1-yl]-2-(trifluoromethyl)benzonitrile]
Androgen receptor; 48 h
  remaining activity at 1 µM: 61%

## CC(C)C(=O)N1CCN(CCCCN2C(=S)N(c3ccc(C#N)c(C(F)(F)F)c3)C(=O)C2(C)C)CC1 [Example 546, 4-[4,4-Dimethyl-3-[4-[4-(2-methyl-1-oxopropyl)piperazin-1-yl]butyl]-5-oxo-2-thioxoimidazolidin-1-yl]-2-(trifluoromethyl)benzonitrile]
Seminal vesicles
  % Inhibition of the MSB Growth: 98%
Androgen receptor; 48 h
  remaining activity at 1 µM: 68%

## CCS(=O)(=O)N1CCN(CCCCCN2C(=S)N(c3ccc(C#N)c(C(F)(F)F)c3)C(=O)C2(C)C)CC1 [Example 629, 4-[3-[5-[4-(Ethylsulfonyl)piperazin-1-yl]pentyl]-4,4-dimethyl-5-oxo-2-thioxoimidazolidin-1-yl]-2-(trifluoromethyl)benzonitrile]
LNCaP cells; Homo sapiens
  IC50: 140 nM
Seminal vesicles
  % Inhibition of the MSB Growth: 98%
Androgen receptor; 48 h
  remaining activity at 1 µM: 54%

## CC1(C)C(=O)N(c2ccc(C#N)c(C(F)(F)F)c2)C(=S)N1CCCCCN1CCN(S(=O)(=O)c2ccc(C#N)cc2)CC1 [Example 632, 4-[3-[5-[4-[(4-Cyanophenyl)sulfonyl]piperazin-1-yl]pentyl]-4,4-dimethyl-5-oxo-2-thioxoimidazolidin-1-yl]-2-(trifluoromethyl)benzonitrile]
Androgen receptor; 48 h
  remaining activity at 1 µM: 75%

## CC(C)C(=O)N1CCN(CCCCCCN2C(=S)N(c3ccc(C#N)c(C(F)(F)F)c3)C(=O)C2(C)C)CC1 [Example 653, 4-[4,4-Dimethyl-3-[6-[4-(2-methyl-1-oxopropyl)piperazin-1-yl]hexyl]-5-oxo-2-thioxoimidazolidin-1-yl]-2-(trifluoromethyl)benzonitrile]
Androgen receptor; 48 h
  remaining activity at 1 µM: 71%

## CC(C)(O)C(=O)N1CCN(CCCCCCN2C(=S)N(c3ccc(C#N)c(C(F)(F)F)c3)C(=O)C2(C)C)CC1 [Example 656]
LNCaP cells
  IC50: 26 nM
  % Inhibition at 1 μM: 99%

## CC1(C)C(=O)N(c2ccc(C#N)c(C(F)(F)F)c2)C(=S)N1CCCCCCN1CCN(C(=O)C(F)(F)F)CC1 [Example 670, 4-[4,4-Dimethyl-5-oxo-2-thioxo-3-[6-[4-(trifluoracetyl)piperazin-1-yl]hexyl]-imidazolidin-1-yl]-2-(trifluoromethyl)-benzonitrile]
LNCaP cells
  IC50: 24 nM
  % Inhibition at 1 μM: 96%

## CSC(=O)N1CCN(CCCCCCN2C(=S)N(c3ccc(C#N)c(C(F)(F)F)c3)C(=O)C2(C)C)CC1 [Example 696, S-Methyl 4-[6-[3-[4-cyano-3-(trifluoromethyl)phenyl]-5,5-dimethyl-4-oxo-2-thioxoimidazolidin-1-yl]hexyl]piperazine-1-carbothioate]
Seminal vesicles
  % Inhibition of the MSB Growth: 87%
Androgen receptor; 48 h
  remaining activity at 1 µM: 60%

## C[C@]1(O)CC[C@H]2[C@@H]3CCC4=CC(=O)CCC4=C3C=C[C@@]21C [Example R-1881, 17β-hydroxy-17α-methylestra-4,9,11-trien-3-one, reference compound]
Androgen receptor; LNCaP cells
  AR Content [%]: 250%
Androgen receptor; LNCaP cells, listed as R1881
  AR Content [%]: stabilizes the AR protein
